Data on 18 molecules can be found in ChEMBL document CHEMBL1641409, “Synthesis and SAR study of new phenylimidazole-pyrazolo[1,5-c]quinazolines as potent phosphodiesterase 10A inhibitors” (Bioorg Med Chem, 2011).

Series [1] concerns the target Dual specificity calcium/calmodulin-dependent 3',5'-cyclic nucleotide phosphodiesterase 1B (Homo sapiens, UniProt Q01064). The experiment in a line: Inhibition of PDE1B.
Series [2] addresses cGMP-inhibited 3',5'-cyclic phosphodiesterase 3A (Homo sapiens, UniProt Q14432). The series is described as follows: Inhibition of PDE3A.
In series [3] the target is 3',5'-cyclic-AMP phosphodiesterase 4D (Homo sapiens, UniProt Q08499). The experiment in a line: Inhibition of PDE4D6.
Series [4] concerns the target cGMP-specific 3',5'-cyclic phosphodiesterase (Homo sapiens, UniProt O76074). The experiment in a line: Inhibition of PDE5A.
In series [5] the target is 3',5'-cyclic-AMP phosphodiesterase 7B (Homo sapiens, UniProt Q9NP56). The series is described as follows: Inhibition of PDE7B.
Series [6] deals with Plasma. The series is described as follows: Drug level in mouse plasma at 2 mg/kg, po. It is filed as ADME, organism-based. Further details: dose 2 mg/kg, route oral. The following applies: in vivo.
The subject of series [7] is Brain. The series is described as follows: Drug level in mouse brain measured per gram of tissue at 2 mg/kg, po. Further details: dose 2 mg/kg, route oral. The following applies: in vivo. It counts as ADME, organism-based.
The nature of series [8]: Ratio of drug level in brain to plasma in mouse at 2 mg/kg, po. The following applies: read-out: BPR. The arrangement: dose 2 mg/kg, route oral. It is filed as ADME, organism-based.
Series [9] concerns the target cAMP and cAMP-inhibited cGMP 3',5'-cyclic phosphodiesterase 10A (Homo sapiens, UniProt Q9Y233). The experiment in a line: Inhibition of human PDE10A expressed in Sf9 cells using [3H]cAMP by scintillation proximity assay. For orientation: In a scintillation proximity assay essentially only radioactivity close to the scintillant gives light.
The test system of series [10] is Plasma. The experiment in a line: Drug level in mouse plasma at 5 mg/kg, sc. It counts as ADME, organism-based. Conditions: in vivo. Further details: dose 5 mg/kg, route subcutaneous.
Series [11] deals with Brain. The experiment in a line: Drug level in mouse brain measured per gram of tissue at 5 mg/kg, sc. It counts as ADME, organism-based. The arrangement: dose 5 mg/kg, route subcutaneous. The following applies: in vivo.
Series [12] in a line: Ratio of drug level in brain to plasma in mouse at 5 mg/kg, sc. It is filed as ADME, organism-based. The arrangement: dose 5 mg/kg, route subcutaneous. The following applies: read-out: BPR.

Where only a bound is given, the exact number is not on record here.

cAMP and cAMP-inhibited cGMP 3',5'-cyclic phosphodiesterase 10A, sequence (Q9Y233 whole entry): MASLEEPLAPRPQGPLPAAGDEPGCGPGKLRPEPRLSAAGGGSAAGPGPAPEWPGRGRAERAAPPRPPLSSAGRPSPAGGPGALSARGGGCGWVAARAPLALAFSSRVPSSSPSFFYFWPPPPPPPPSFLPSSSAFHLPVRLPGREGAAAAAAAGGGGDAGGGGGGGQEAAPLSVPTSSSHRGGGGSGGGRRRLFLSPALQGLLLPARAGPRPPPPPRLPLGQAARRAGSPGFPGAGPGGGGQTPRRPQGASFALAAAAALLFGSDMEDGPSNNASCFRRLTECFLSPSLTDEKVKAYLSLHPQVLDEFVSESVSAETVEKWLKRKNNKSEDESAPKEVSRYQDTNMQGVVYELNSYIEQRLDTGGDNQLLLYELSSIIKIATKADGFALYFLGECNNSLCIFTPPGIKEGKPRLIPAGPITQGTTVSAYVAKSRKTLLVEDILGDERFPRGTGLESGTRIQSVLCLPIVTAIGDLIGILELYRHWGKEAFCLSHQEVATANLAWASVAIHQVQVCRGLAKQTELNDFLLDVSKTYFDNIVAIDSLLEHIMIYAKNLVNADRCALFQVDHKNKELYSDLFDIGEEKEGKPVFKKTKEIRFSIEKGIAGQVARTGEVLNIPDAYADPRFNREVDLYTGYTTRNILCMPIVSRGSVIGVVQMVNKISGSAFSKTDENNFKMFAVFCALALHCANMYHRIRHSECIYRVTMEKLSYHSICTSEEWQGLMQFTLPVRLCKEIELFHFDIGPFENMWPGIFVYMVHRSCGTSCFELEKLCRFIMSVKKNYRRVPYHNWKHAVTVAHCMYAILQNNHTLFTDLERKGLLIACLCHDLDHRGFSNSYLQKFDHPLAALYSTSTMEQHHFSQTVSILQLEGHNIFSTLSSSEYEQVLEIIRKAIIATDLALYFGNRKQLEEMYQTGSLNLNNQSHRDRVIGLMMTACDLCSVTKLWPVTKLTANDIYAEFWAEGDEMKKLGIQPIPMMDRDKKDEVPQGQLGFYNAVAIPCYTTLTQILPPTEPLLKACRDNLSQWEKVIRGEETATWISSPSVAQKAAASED
3',5'-cyclic-AMP phosphodiesterase 4D, sequence (Q08499 whole entry): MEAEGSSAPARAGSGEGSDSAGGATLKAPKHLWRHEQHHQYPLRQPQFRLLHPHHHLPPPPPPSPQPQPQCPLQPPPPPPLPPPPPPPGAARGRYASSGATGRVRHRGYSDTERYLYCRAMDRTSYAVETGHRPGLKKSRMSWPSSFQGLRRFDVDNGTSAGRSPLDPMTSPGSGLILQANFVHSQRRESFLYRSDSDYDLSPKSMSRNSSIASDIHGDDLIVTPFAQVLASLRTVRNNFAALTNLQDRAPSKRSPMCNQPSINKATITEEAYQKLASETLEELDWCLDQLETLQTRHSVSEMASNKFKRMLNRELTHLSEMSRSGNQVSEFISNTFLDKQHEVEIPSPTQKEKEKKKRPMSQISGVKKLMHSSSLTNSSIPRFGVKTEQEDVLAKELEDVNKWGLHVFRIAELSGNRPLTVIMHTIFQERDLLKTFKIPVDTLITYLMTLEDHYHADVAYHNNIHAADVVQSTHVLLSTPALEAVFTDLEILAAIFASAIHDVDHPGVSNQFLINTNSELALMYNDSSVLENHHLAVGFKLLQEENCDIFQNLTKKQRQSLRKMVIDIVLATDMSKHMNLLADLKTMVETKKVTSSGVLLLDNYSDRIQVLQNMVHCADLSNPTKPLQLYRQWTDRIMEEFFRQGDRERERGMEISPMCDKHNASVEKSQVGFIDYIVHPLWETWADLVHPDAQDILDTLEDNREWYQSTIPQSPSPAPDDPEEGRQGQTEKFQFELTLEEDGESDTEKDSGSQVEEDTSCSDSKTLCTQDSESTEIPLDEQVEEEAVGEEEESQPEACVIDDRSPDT
Dual specificity calcium/calmodulin-dependent 3',5'-cyclic nucleotide phosphodiesterase 1B, sequence (Q01064 whole entry): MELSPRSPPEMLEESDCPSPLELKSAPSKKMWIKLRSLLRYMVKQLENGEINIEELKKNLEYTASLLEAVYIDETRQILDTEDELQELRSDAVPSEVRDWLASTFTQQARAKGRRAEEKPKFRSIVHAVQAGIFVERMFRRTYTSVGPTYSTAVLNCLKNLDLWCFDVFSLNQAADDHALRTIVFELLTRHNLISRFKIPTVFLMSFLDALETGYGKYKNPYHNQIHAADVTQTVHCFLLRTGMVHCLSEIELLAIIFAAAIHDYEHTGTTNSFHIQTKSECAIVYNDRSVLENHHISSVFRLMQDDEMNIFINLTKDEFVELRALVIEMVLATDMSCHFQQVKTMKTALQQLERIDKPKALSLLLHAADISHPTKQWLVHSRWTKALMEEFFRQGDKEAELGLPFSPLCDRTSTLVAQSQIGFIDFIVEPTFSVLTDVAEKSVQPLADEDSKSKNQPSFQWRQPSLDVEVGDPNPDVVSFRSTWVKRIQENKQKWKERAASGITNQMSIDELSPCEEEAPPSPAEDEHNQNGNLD
3',5'-cyclic-AMP phosphodiesterase 7B, sequence (Q9NP56 whole entry): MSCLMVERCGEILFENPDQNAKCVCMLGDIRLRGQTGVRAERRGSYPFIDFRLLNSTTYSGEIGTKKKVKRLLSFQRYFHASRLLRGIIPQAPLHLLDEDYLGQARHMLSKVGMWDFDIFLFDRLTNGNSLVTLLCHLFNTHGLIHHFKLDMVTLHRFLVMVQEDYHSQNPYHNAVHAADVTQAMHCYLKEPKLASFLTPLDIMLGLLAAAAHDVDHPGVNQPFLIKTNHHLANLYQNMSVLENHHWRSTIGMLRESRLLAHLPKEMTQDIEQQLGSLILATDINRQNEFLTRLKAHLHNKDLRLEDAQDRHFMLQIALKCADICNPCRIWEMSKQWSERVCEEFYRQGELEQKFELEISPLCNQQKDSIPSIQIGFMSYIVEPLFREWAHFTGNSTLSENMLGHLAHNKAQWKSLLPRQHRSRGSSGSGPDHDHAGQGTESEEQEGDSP
cGMP-inhibited 3',5'-cyclic phosphodiesterase 3A, sequence (Q14432 whole entry): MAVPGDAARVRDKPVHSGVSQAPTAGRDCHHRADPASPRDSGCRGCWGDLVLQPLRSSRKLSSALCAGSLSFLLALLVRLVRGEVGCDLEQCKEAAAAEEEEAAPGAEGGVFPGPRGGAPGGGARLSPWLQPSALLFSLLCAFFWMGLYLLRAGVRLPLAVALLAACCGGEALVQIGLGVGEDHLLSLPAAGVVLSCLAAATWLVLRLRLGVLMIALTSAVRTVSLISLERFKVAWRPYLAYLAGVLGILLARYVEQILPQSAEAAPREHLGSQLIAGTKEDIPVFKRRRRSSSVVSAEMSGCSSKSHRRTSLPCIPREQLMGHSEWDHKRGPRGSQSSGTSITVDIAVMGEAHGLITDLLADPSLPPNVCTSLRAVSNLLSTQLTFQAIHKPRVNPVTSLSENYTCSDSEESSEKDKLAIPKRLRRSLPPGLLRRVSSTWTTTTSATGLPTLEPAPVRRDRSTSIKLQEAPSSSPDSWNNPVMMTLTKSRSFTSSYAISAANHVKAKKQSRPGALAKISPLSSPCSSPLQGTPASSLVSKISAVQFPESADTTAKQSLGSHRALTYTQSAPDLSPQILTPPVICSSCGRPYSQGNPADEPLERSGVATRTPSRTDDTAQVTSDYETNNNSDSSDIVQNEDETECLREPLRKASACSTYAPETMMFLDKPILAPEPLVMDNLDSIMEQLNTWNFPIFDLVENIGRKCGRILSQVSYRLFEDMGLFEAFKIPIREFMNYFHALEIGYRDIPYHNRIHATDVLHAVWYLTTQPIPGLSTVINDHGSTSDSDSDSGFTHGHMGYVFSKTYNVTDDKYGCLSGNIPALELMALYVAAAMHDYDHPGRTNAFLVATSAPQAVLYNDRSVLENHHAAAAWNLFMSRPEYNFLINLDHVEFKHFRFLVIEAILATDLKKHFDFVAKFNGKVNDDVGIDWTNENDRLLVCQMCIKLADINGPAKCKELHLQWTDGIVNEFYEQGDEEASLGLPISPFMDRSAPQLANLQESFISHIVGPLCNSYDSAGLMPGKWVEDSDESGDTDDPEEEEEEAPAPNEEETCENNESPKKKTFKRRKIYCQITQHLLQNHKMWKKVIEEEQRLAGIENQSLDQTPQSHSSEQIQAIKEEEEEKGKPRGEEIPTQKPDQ

In the case of `Cc1nc2c3ccccc3nc(SCc3nc4ccccc4[nH]3)n2n1`, the 50% inhibitory concentration (IC50) in [1], in [2], in [3], in [4] and in series [5] was 10000 nM each time. The figures for the Drug uptake in series [6] and in [7] were 629 ng/mL and less than 25 ng/mL, respectively. Moreover, the Kp in series [8] is less than 0.04.
Consider `Cc1ccc2nc(CCc3nc(-c4ccccc4)cn3C)n3nc(C)cc3c2c1`, for which the IC50 (as a rule, the concentration at which inhibition is half-maximal) in series [9] amounted to 16 nM; in [1], 10000 nM; in series [2] it was 10000 nM; in series [3], 10000 nM; in series [4] it was 10000 nM; in series [5], 10000 nM.
`Cc1cc2c3ccccc3nc(CSc3nc(-c4ccccc4)cn3C)n2n1`: the IC50 in [9] was 48 nM.
On the same count and under the same terms, as for `Cc1cc2c3cccc(Cl)c3nc(CSc3nc(-c4ccccc4)cn3C)n2n1`, the figure is 73 nM; as for `Cc1cc2c3ccc(Cl)cc3nc(CSc3nc(-c4ccccc4)cn3C)n2n1`, 130 nM.
The same measure, in the same setting: as for `Cc1cc2c3cc(Cl)ccc3nc(CSc3nc(-c4ccccc4)cn3C)n2n1`, the figure is 110 nM; as for `COc1cccc2c1nc(CSc1nc(-c3ccccc3)cn1C)n1nc(C)cc21`, 83 nM.
Still for that read-out and setting: as for `COc1ccc2c(c1)nc(CSc1nc(-c3ccccc3)cn1C)n1nc(C)cc21`, the figure is 100 nM.
In turn, `Cc1cc2c3cccc(C)c3nc(CSc3nc(-c4ccccc4)cn3C)n2n1` displayed a half-inhibitory concentration (IC50) in series [9] of 160 nM.
`Cc1ccc2nc(CSc3nc(-c4ccccc4)cn3C)n3nc(C)cc3c2c1` gave a half-inhibitory concentration (IC50) in [9] of 76 nM.
Turning to `Cc1cc2c3ccccc3nc(CCc3nc(-c4ccccc4)cn3C)n2n1`, in series [9], inhibition was half-maximal at 50 nM (IC50). Also, the Drug uptake worked out at 150 ng/mL in series [10] and 98 ng/mL in series [11]. Besides, the Kp in series [12] amounted to 0.65.
For `Cc1cc2c3cccc(Cl)c3nc(CCc3nc(-c4ccccc4)cn3C)n2n1`, the half-inhibitory concentration (IC50) in series [9] turned out to be 52 nM.
On the same count and under the same terms, as for `Cc1cc2c3ccc(Cl)cc3nc(CCc3nc(-c4ccccc4)cn3C)n2n1`, the figure is 50 nM; as for `Cc1cc2c3cc(Cl)ccc3nc(CCc3nc(-c4ccccc4)cn3C)n2n1`, 16 nM.
The molecule `COc1cccc2c1nc(CCc1nc(-c3ccccc3)cn1C)n1nc(C)cc21` displayed an IC50 in [9] of 37 nM.
Take `COc1ccc2c(c1)nc(CCc1nc(-c3ccccc3)cn1C)n1nc(C)cc21`: 31 nM corresponded to half-maximal inhibition in [9] (IC50).
On the same count and under the same terms, for `COc1ccc2nc(CCc3nc(-c4ccccc4)cn3C)n3nc(C)cc3c2c1` the value was 430 nM.
Still for that read-out and setting: for `Cc1cc2c3cccc(C)c3nc(CCc3nc(-c4ccccc4)cn3C)n2n1` the value was 78 nM.
